Assay results as given in article PMC7765298, “EGFR-Binding Peptides: From Computational Design towards Tumor-Targeting of Adeno-Associated Virus Capsids” (International Journal of Molecular Sciences, 2020).
pKd: −log10 of the molar value.

Experiments:
[1] = system: A431 cells; assay: Wound healing assay; type: cell-based; conditions: 1 nM recombinant human EGF in RPMI medium, positive control
Description: Since biophysical measurements are confounded by the intrinsic diversity of receptor conformations and imaging of moderate binding is difficult, we assessed peptide activity using a cell-based functional assay. Epidermoid tumor cell line A431 depends on EGF signaling for proliferation and migration, which can be assessed by wound healing assays monitoring the closure of a scratch in a cell lawn. A431 cells were grown to a confluent cell monolayer, serum-starved, and scratched. The resulting gap was monitored by microscopy and measured over a 6-h period (Figure 3A). As a positive, control cells were treated with 1 nM recombinant human EGF (hEGF) in RPMI medium. Cell migration in µm/h was calculated from a linear regression of the gap area over time plotted against time (Figure S6). […]
Figure 3 Effect of EGFR-directed peptides in the presence of the natural EGFR-ligand EGF in a wound healing assay with A431 cells. […] The yellow cell borders were detected by image recognition using ImageJ. […] (B) Bar chart presenting the cell migration velocity as determined from microscopy images. […]
Figure S6. […] The gap area over time is analyzed for each sample.
Areas were calculated using ImageJ. Linear regressions were calculated to determine to growth rate. […]

[2] = target: EGFR; conditions: dissociation constant described for EGFR-binding peptide GE11; cited from earlier work

hEGF: recombinant human epidermal growth factor, positive control
increase in cell migration compared to negative control (buffer) [1]: three-fold increase

YHWYGYTPQNVI [GE11]
pKd [2]: 3.34
